ChEMBL document CHEMBL1201862, “PubChem BioAssay data set” (2004)
Calls of active or inactive are those of the source.

Legend:
MDCK [1] = assay: antiviral activity against H1N1 influenza, dose response, cell-based, strain KY180 (AID 540254); type: functional; conditions: Canis lupus familiaris
[2] = target: T1, High affinity choline transporter 1 (Homo sapiens, UniProt Q9GZV3); assay: human choline transporter blockers, potency – cell-based, 5-point CRC, membrane potential dye, dose response (AID 504840); type: functional
T1 sequence (Q9GZV3 whole entry): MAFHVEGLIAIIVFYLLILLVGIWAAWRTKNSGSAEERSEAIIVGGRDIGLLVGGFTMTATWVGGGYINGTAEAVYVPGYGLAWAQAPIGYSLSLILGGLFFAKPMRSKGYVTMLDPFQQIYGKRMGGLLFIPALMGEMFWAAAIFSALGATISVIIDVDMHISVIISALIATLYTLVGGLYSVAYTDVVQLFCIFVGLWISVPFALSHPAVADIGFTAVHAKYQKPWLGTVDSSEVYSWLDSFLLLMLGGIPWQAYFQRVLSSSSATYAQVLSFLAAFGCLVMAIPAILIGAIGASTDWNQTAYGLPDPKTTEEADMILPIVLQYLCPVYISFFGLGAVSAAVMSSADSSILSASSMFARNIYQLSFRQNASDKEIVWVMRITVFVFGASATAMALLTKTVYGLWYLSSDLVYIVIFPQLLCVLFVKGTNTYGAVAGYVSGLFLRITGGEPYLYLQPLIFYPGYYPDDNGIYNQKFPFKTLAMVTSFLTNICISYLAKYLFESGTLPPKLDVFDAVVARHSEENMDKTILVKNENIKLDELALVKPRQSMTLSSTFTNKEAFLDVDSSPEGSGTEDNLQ

Vero = assay: Vero E6 cell cytotoxicity, dose response, cytotoxicity control (AID 540298); type: functional; conditions: Chlorocebus sabaeus
MDCK [3] = assay: MDCK cell cytotoxicity, dose response, cytotoxicity control (AID 540296); type: functional; conditions: Canis lupus familiaris
MDCK [4] = assay: antiviral activity against H1N1 influenza, dose response, cell-based, strain KY136 (AID 540257); type: functional; conditions: Canis lupus familiaris
Nonstructural protein 1 = Nonstructural protein 1 (Influenza A virus, UniProt Q194T2); type: functional, Influenza A virus (A/California/07/2009(H1N1))
Sequence of Nonstructural protein 1 (Q194T2 whole entry): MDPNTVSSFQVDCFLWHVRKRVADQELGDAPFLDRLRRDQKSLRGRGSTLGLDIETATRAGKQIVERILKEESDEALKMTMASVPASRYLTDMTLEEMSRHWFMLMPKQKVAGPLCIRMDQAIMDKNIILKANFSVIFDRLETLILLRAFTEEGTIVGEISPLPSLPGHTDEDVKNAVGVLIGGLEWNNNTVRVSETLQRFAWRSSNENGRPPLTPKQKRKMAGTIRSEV

O=C(Nc1cccc(CNCCc2c[nH]c3ccccc23)c1)c1ccccc1Cl
active: IC50 (MDCK [1]) > 100 µM | IC50 [2] 17.4 µM | CC50 (Vero) 22.4 µM | CC50 (MDCK [3]) 10.9 µM | IC50 (MDCK [4]) 2.93 µM | IC50 (Nonstructural protein 1) > 100 µM
